What was measured:
[1] = target: 2PITC-modified MIF (human MIF covalently modified at Pro1 by 2-piperidinoethyl isothiocyanate) (human) (UniProt P14174); experiment: SEC-MALS
[2] = target: T1, MIF (Homo sapiens, UniProt P14174); experiment: Covalent modification of MIF by MALDI-TOF MS and tryptic peptide mapping; assay type: binding; settings: for site of covalent modification of MIF: trypsin digestion, peptide mapping, MS/MS, 10 μM
T1 sequence (P14174 2-115): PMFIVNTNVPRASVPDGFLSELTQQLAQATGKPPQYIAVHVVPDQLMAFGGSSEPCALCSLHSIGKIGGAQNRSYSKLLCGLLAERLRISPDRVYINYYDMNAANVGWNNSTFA

[3] = target: T1, MIF; experiment: MIF tautomerase activity; assay type: biochemical
[4] = target: T1, MIF; experiment: Sedimentation velocity analytical ultracentrifugation of MIF; settings: MIF 10 μM preincubated with 6 μM BITC 1 h RT
[5] = tested on: human macrophages; experiment: Glucocorticoid overriding assay; assay type: cell-based
[6] = tested on: MIF; experiment: Covalent modification of MIF by MALDI-TOF MS and tryptic peptide mapping; assay type: binding, human; settings: 10 μM BITC, 60 min
[7] = tested on: lysozyme; experiment: BITC modification specificity by MALDI-TOF; assay type: binding; settings: equimolar, 1 h or overnight at RT
[8] = target: ubiquitin (Homo sapiens, UniProt P0CG47); experiment: BITC modification specificity by MALDI-TOF; assay type: binding; settings: equimolar, 1 h or overnight at RT
[9] = target: murine MIF (Mus musculus, UniProt P34884); experiment: MIF tautomerase activity; assay type: biochemical; settings: read-out: inhibition of the tautomerase activity
[10] = tested on: HeLa cells; experiment: Phospho Akt activation by MIF; assay type: cell-based, human
[11] = target: α-synuclein (Homo sapiens, UniProt P37840); experiment: BITC modification specificity by MALDI-TOF; assay type: binding; settings: equimolar, 1 h or overnight at RT
[12] = target: AITC-modified MIF (human MIF covalently modified at Pro1 by allyl isothiocyanate) (human) (UniProt P14174); experiment: SEC-MALS
[13] = target: BITC-modified MIF (human MIF covalently modified at Pro1 by benzyl isothiocyanate) (human) (UniProt P14174); experiment: SEC-MALS
[14] = target: BITC-modified MIF (human MIF covalently modified at Pro1 by benzyl isothiocyanate) (human) (UniProt P14174); experiment: AUC
[15] = target: EITC-modified MIF (human MIF covalently modified at Pro1 by ethyl isothiocyanate) (human) (UniProt P14174); experiment: SEC-MALS
[16] = target: MITC-modified MIF (human MIF covalently modified at Pro1 by methallyl isothiocyanate) (human) (UniProt P14174); experiment: SEC-MALS
[17] = target: human macrophage migration inhibitory factor (MIF), unmodified (human) (UniProt P14174); experiment: SEC-MALS
[18] = target: human macrophage migration inhibitory factor (MIF), unmodified (human) (UniProt P14174); experiment: AUC

## 2PITC-modified MIF (human MIF covalently modified at Pro1 by 2-piperidinoethyl isothiocyanate) (from UniProt P14174 1-115) (natural protein)
[1]
  stoichiometry N: 3

## S=C=NCCN1CCCCC1 [2PITC, 2-Piperidinoethyl isothiocyanate]
[2]
  site of covalent modification of MIF: shown to modify MIF at the N-terminal Pro residue
[3]
  IC50: 3.09 µM

## C=CCN=C=S [AITC, allyl isothiocyamate]
[2]
  site of covalent modification of MIF: shown to modify MIF at the N-terminal Pro residue

## S=C=NCc1ccccc1 [BITC, Benzyl isothiocyanate]
[4]
  quaternary structure distribution of MIF (sedimentation velocity): sedimented predominantly as a single species
[5]; BITC 10 μM, MIF 100 ng/mL, Dex 100 nM, LPS 100 ng/mL, 4 h
  MIF-mediated dexamethasone overriding: abrogated MIF-mediated dexamethasone overriding
[5]; BITC 10 μM, LPS-stimulated, compared with dexamethasone
  TNF production: decreased TNF production even more potently than dexamethasone
[5]; culture conditions used to induce TNF production (data not shown)
  macrophage viability: did not alter macrophage viability
[2]; concentrations > 10 μM, MIF 15 μM, Tris 50 mM pH 7.4, 60 min
  formation of BITC-MIF adduct (MALDI-TOF): complete conversion to the singly modified form of MIF
[2]
  site of covalent modification of MIF: modification takes place at the N-terminal proline residue
[6]; R73AΔ5, R73AΔ10 or P107
  modification of inactive MIF proteins: no modification was observed
[6]; Wt, N110C and R73A
  modification of enzymatically active forms of MIF: total modification
[7]
  modification of lysozyme (MS): No modification was detected
[8]
  modification of ubiquitin (MS): No modification was detected
[9]
  inhibition at 10 µM: 100%
[10]; BITC 1 and 10 μM, MIF 50 ng/mL, 2 h
  MIF-induced Akt phosphorylation: inhibited MIF-induced Akt phosphorylation
[10]; BITC alone
  baseline Akt phosphorylation: did not modify baseline Akt phosphorylation
[11]
  modification of α-synuclein (MS): No modification was detected
[3]; read-out: inhibition of the tautomerase activity
  inhibition at 10 µM: 100%

## S=C=NC1CC1 [CPITC, cyclopropyl isothiocyanate]
[2]
  site of covalent modification of MIF: shown to modify MIF at the N-terminal Pro residue

## CCN=C=S [EITC, ethyl isothiocyanate]
[2]
  site of covalent modification of MIF: shown to modify MIF at the N-terminal Pro residue

## C=C(C)CN=C=S [MITC, methallyl Isothiocyanate]
[2]
  site of covalent modification of MIF: shown to modify MIF at the N-terminal Pro residue

## C[C@@H]1C[C@H]2[C@@H]3CCC4=CC(=O)C=C[C@]4(C)[C@@]3(F)[C@@H](O)C[C@]2(C)[C@@]1(O)C(=O)CO [dexamethasone, reference compound]
[5]; dexamethasone 100 nM
  TNF production by LPS-stimulated monocytes: inhibited TNF production

## AITC-modified MIF (human MIF covalently modified at Pro1 by allyl isothiocyanate) (from UniProt P14174 1-115) (natural protein)
[12]
  stoichiometry N: 3

## BITC-modified MIF (human MIF covalently modified at Pro1 by benzyl isothiocyanate) (from UniProt P14174 1-115) (natural protein)
[13]
  stoichiometry N: 3
[14]
  stoichiometry N: 3

## EITC-modified MIF (human MIF covalently modified at Pro1 by ethyl isothiocyanate) (from UniProt P14174 1-115) (natural protein)
[15]
  stoichiometry N: 3

## MITC-modified MIF (human MIF covalently modified at Pro1 by methallyl isothiocyanate) (from UniProt P14174 1-115) (natural protein)
[16]
  stoichiometry N: 3

## human macrophage migration inhibitory factor (MIF), unmodified (from UniProt P14174 1-115) (natural protein)
[17]
  stoichiometry N: 3
[18]
  stoichiometry N: 3

Reference: paper PMC3607106 (Biochemistry, 2009)
